Patent publication US5620416A, “Methods of using topical agents with systemically administered active agents” (priority 1995, dated 1997)

Experiment: Skin CDDP concentration after iontophoresis of a vasoactive agent with intravenous cisplatin infusion
Type: in vivo, female weanling Yorkshire pigs
Text: The ability of iontophoretically-delivered, vasoactive compounds to affect local cutaneous concentrations of a systemically delivered active agent was investigated in female weanling Yorkshire pigs. The effect of the timing of iontophoresis on tissue deposition of active agent was also investigated.
Study animals were assigned to receive iontophoresis either prior to, or after, attaining steady-state systemic concentrations of cisplatin (cisdiaminedichloroplatinum, CDDP). The iontophoresed agent was either a peripheral vasodilator (tolazoline), peripheral vasoconstrictor (norepinephrine), or saline.
Subjects were sedated with intramuscular ketamine/xylazine, and anesthesia was maintained with intravenous thiamylal. In each subject the inguinal area was divided into four quadrants, three of which received iontophoresis. One quadrant received iontophoresis of 0.4% tolazoline HCl (TOL); one received iontophoresis of 0.4% norepinephrine HCl (NOR); and one received iontophoresis of 50% saturated saline (SAL). The remaining quadrant served as a control (CON) and was not subjected to iontophoresis.
Iontophoretic current density was 0.2 mAmp/cm^2. Cisplatin (1.0 mg/ml) was infused via the saphenous vein at a rate of 0.03 mg/kg/min. […]

NC[C@H](O)c1ccc(O)c(O)c1 [Norepinephrine, norepinephrine]
skin CDDP concentrations among skin samples (in words) (iontophoresis after reaching steady-state CDDP, control, tolazoline, norepinephrine and saline electrodes): did not vary significantly
skin CDDP concentration vs control skin (in words) (iontophoresis prior to steady-state CDDP, tolazoline p=0.01, norepinephrine p<0.001): significantly lower
